Test results: patent US7722892B2, “Compounds” (Syngenta Crop Protection, Inc., priority 2001, dated 2010)

Legend:
[1] = tested on: TRZAW Triticum aestivum (wheat); test: Glasshouse weed kill, adjuvant with fluazifop-P-butyl, track sprayer; assay type: in vivo; settings: adjuvant 0.2% v/v, 21 days after treatment; for Mean Activity (% weed kill) TRZAW: with fluazifop-p-butyl, mean of 3 replicates and 4 rates; for ED90 TRZAW (concentration required to provide 90% weed kill): fluazifop-p-butyl rate, 200 l/ha
Method: (§1) An agrochemical composition was prepared containing 0.2% v/v of an adjuvant in a track sprayer containing fluazifop P butyl emulsified at one of four different concentrations. Weeds which had been grown to the 2.3 leaf stage were sprayed using volumes of 200 l/ha. Each sample was replicated three times. The following weed species were tested:— • AVEFA Avena fatua (wild oats) • LOLRI Lolium rigidum (rye grass) • TRZAW Triticum aestivum (wheat) • SETVI Setaria viridis (green foxtails)
(§2) Activity was measured 21 days after treatment and was compared with a standard composition containing only fluazifop-p-butyl. The concentration required to provide 90% weed kill was calculated and is given in TABLE 1 below together with the mean ED90 across the species.
(§3) Further adjuvants of the present invention were tested for activity in combination with fluzifop-p-butyl. Activity (% weed kill) was measured 21 days after treatment and is given as a mean of 3 replicates and 4 rates of fluazifop-p-butyl. All adjuvants were applied at 0.2% v/v. The results are given in Table 2 in comparison with a corresponding composition containing no adjuvant.

[2] = tested on: SETVI Setaria viridis (green foxtails); test: as above; assay type: in vivo; settings: adjuvant 0.2% v/v, 21 days after treatment; for Mean Activity (% weed kill) SETVI: with fluazifop-p-butyl, mean of 3 replicates and 4 rates; for ED90 SETVI (concentration required to provide 90% weed kill): fluazifop-p-butyl rate, 200 l/ha
Method: as §1, §2, §3

[3] = tested on: LOLRI Lolium rigidum (rye grass); test: as above; assay type: in vivo; settings: adjuvant 0.2% v/v, 21 days after treatment; for Mean Activity (% weed kill) LOLRI: with fluazifop-p-butyl, mean of 3 replicates and 4 rates; for ED90 LOLRI (concentration required to provide 90% weed kill): fluazifop-p-butyl rate, 200 l/ha
Method: as §1, §2, §3

[4] = tested on: AVEFA Avena fatua (wild oats); test: as above; assay type: in vivo; settings: adjuvant 0.2% v/v, 21 days after treatment; for Mean Activity (% weed kill) AVEFA: with fluazifop-p-butyl, mean of 3 replicates and 4 rates; for ED90 AVEFA (concentration required to provide 90% weed kill): fluazifop-p-butyl rate, 200 l/ha
Method: as §1, §2, §3

[5] = tested on: AVEFA, LOLRI, TRZAW, SETVI; test: Weed kill with fluazifop-P-butyl, mean across the species; assay type: in vivo; settings: adjuvant 0.2% v/v, 21 days after treatment; for Mean Activity (% weed kill) Mean over all species: with fluazifop-p-butyl; for Mean ED90 across the species: fluazifop-p-butyl rate
Method: as §1, §2, §3

AVEFA = test: Adjuvant with thin leaved grass herbicide (oxadiazepine pivalate ester), track sprayer; assay type: in vivo, Avena fatua; settings: 200 l/ha, average of two replicates
Method: (§4) The indicated adjuvants were evaluated in combination with a thin leaved grass herbicide 2,2,-dimethyl-propionic acid-8-(2,6-diethyl-4-methyl-phenyl)-9-oxo-1,2,4,5-tetrahydro-9H-pyrazolo[1,2-d][1,4,5]oxadiazepine-7-yl ester. The weeds were sprayed at the growth stages shown in the table with pesticide emulsions using a track sprayer and volumes of 200 l/ha. The adjuvants were added at 5% v/v as tank mix additives. Each result is the average of two replicates.

ALOMY = test: as above; assay type: in vivo; settings: 200 l/ha, average of two replicates
Method: as §4

LOLMU = test: as above; assay type: in vivo; settings: 200 l/ha, average of two replicates
Method: as §4

[6] = tested on: PHAPA (Phalaris paradoxa); test: as above; assay type: in vivo; settings: 200 l/ha, average of two replicates
Method: as §4

[7] = tested on: APESV (Apera Spica-Venti); test: as above; assay type: in vivo; settings: 200 l/ha, average of two replicates
Method: as §4

[8] = tested on: ALOMY, APESV, AVEFA, LOLMU, PHAPA; test: Adjuvant with thin leaved grass herbicide, mean of all weeds; assay type: in vivo
Method: as §4

Puccinia recondita = test: Glasshouse disease control with azoxystrobin on inoculated barley; assay type: in vivo; settings: adjuvant 0.5% v/v tank mix, four replicates
Method: The results quoted are the mean percentage disease control from four replicates on barley inoculated with Puccinia recondita. The adjuvant was added as a 0.5% v/v tank mix.

| Substance | Mean Activity (% weed kill) TRZAW [1] [%] | Mean Activity (% weed kill) SETVI [2] [%] | Mean Activity (% weed kill) LOLRI [3] [%] | Mean Activity (% weed kill) AVEFA [4] [%] | Mean Activity (% weed kill) Mean over all species [5] [%] | ED90 TRZAW (concentration required to provide 90% weed kill) [1] [g/ha] | ED90 SETVI (concentration required to provide 90% weed kill) [2] [g/ha] | ED90 LOLRI (concentration required to provide 90% weed kill) [3] [g/ha] | ED90 AVEFA (concentration required to provide 90% weed kill) [4] [g/ha] | Mean ED90 across the species [5] [g/ha] | further results |
| --- | --- | --- | --- | --- | --- | --- | --- | --- | --- | --- | --- |
| Isostearyl (2-hexyl-dodecan-1-ol) 10 Propylene Oxide [Isostearyl 10 PO] | 53.8 | 81.8 | 51.8 | 67.8 | 64 | – | – | – | – | – | – |
| Isostearyl (2-hexyl-dodecan-1-ol) 20 Propylene Oxide [Isostearyl 20 PO] | 37.3 | 80.9 | 52.5 | 58 | 57 | – | – | – | – | – | – |
| Oleic Acid 10 Ethylene Oxide End-Capped Methyl Ether [Oleic 10E Me Ether] | 56.1 | 78.4 | 56.2 | 71.3 | 66 | 28.4 | 15.8 | 34.8 | 16.7 | 23.9 | – |
| Oleic Acid 20 Ethylene Oxide End-Capped Methyl Ether [Oleyl 20 EO Me ether] | 52.1 | 74.6 | 54.9 | 72.3 | 63 | – | – | – | – | – | – |
| Oleyl 10 Ethylene Oxide End-Capped Butyl Ether [Oleyl 10 EO Bu ether] | 56 | 85.6 | 56.5 | 73.3 | 68 | – | – | – | – | – | AVEFA activity (AVEFA; herbicide rate 5 gai/ha): 89; AVEFA activity (AVEFA; herbicide rate 7.5 gai/ha): 98; AVEFA activity (AVEFA; herbicide rate 10 gai/ha): 99; ALOMY activity (ALOMY; herbicide rate 5 gai/ha): 53; ALOMY activity (ALOMY; herbicide rate 7.5 gai/ha): 75; ALOMY activity (ALOMY; herbicide rate 10 gai/ha): 88; LOLMU activity (LOLMU; herbicide rate 5 gai/ha): 91; LOLMU activity (LOLMU; herbicide rate 7.5 gai/ha): 98; LOLMU activity (LOLMU; herbicide rate 10 gai/ha): 93; PHAPA activity ([6]; herbicide rate 5 gai/ha): 93; PHAPA activity ([6]; herbicide rate 7.5 gai/ha): 96; PHAPA activity ([6]; herbicide rate 10 gai/ha): 99; APESV activity ([7]; herbicide rate 5 gai/ha): 53; APESV activity ([7]; herbicide rate 7.5 gai/ha): 97; APESV activity ([7]; herbicide rate 10 gai/ha): 98; Mean All Weeds ([8]; herbicide rate 5 gai/ha): 76; Mean All Weeds ([8]; herbicide rate 7.5 gai/ha): 93; Mean All Weeds ([8]; herbicide rate 10 gai/ha): 95 |
| Oleyl 10 Propylene Oxide End-Capped butyl ether [Oleyl 10P Bu Ether] | 45.8 | 84.2 | 54.4 | 71.4 | 64 | 29.2 | 16.7 | 34.9 | 19.8 | 25.2 | – |
| Oleyl 10 Propylene Oxide [Oleyl 10PO] | 54.3 | 84.6 | 55.9 | 72.6 | 67 | – | – | – | – | – | AVEFA activity (AVEFA; herbicide rate 5 gai/ha): 70; AVEFA activity (AVEFA; herbicide rate 7.5 gai/ha): 96; AVEFA activity (AVEFA; herbicide rate 10 gai/ha): 98; ALOMY activity (ALOMY; herbicide rate 5 gai/ha): 55; ALOMY activity (ALOMY; herbicide rate 7.5 gai/ha): 70; ALOMY activity (ALOMY; herbicide rate 10 gai/ha): 92; LOLMU activity (LOLMU; herbicide rate 5 gai/ha): 33; LOLMU activity (LOLMU; herbicide rate 7.5 gai/ha): 60; LOLMU activity (LOLMU; herbicide rate 10 gai/ha): 80; PHAPA activity ([6]; herbicide rate 5 gai/ha): 23; PHAPA activity ([6]; herbicide rate 7.5 gai/ha): 98; PHAPA activity ([6]; herbicide rate 10 gai/ha): 99; APESV activity ([7]; herbicide rate 5 gai/ha): 23; APESV activity ([7]; herbicide rate 7.5 gai/ha): 89; APESV activity ([7]; herbicide rate 10 gai/ha): 98; Mean All Weeds ([8]; herbicide rate 5 gai/ha): 41; Mean All Weeds ([8]; herbicide rate 7.5 gai/ha): 83; Mean All Weeds ([8]; herbicide rate 10 gai/ha): 93 |
| Oleyl 20 Ethylene Oxide End-Capped Butyl Ether [Oleyl 20E Bu Ether] | 59.3 | 78.1 | 68.8 | 76.1 | 71 | 21.4 | 16.5 | 27.5 | 19.5 | 21.2 | mean percentage disease control (Puccinia recondita; Azoxystrobin 0 mgai/l): 5.9%; mean percentage disease control (Puccinia recondita; Azoxystrobin 0.625 mgai/l (Quadris 25 SC)): 66.5%; mean percentage disease control (Puccinia recondita; Azoxystrobin 1.25 mgai/l (Quadris 25 SC)): 82.7%; mean percentage disease control (Puccinia recondita; Azoxystrobin 2.5 mgai/l (Quadris 25 SC)): 90.5% |
| Oleyl 20 Propylene Oxide End-Capped butyl ether [Oleyl 20P Bu Ether] | 38.8 | 75.9 | 46 | 67.4 | 57 | 32.2 | 19 | 48.6 | 23.4 | 30.8 | – |
| Oleyl 20 Propylene Oxide [Oleyl 20 PO] | 53.3 | 80.4 | 36.3 | 70.6 | 60 | – | – | – | – | – | – |
